What was measured:
human CBP HAT = molecular target: T1, human CBP HAT (Homo sapiens, UniProt Q92793); assay: CBP HAT inhibition assay; assay type: biochemical; conditions: read-out: IC50 against CBP HAT
T1 construct: made in house
From the text: Humans have three classes of histone/protein lysine acetyltransferases with distinct conserved motifs and structures, including p300/CBP, Gcn5-related N-acetyltransferase (GNAT) and MYST (MOZ, Ybf2, Sas2 and Tip60) family of HATs. […] CBP is a homolog of p300. […] PCAF (p300/CBP associating factor) is a member of the GNAT family, while Myst3 belongs to the MYST family of HATs.
The HAT domain (1195-1673) of human p300 was cloned, inserted into pGEX-KG vector and the DNA sequence was verified by sequencing. The p300-HAT expression plasmid was transformed into E. coli BL21-CodonPlus strain (Agilent) and cultured at 37° C. in LB medium containing ampicillin (50 µg/mL) and chloramphenicol (34 µg/mL). After the optical density of the bacterial culture reached ~0.9 at 600 nm, p300 HAT expression was induced by adding 300 µM isopropylthiogalactoside (IPTG) at 18° C. for 48 hours. Cells were collected, lysed, centrifuged for 20 min at 20,000 rpm. The supernatant was subjected to column chromatography with glutathione sepharose resins. […]
To determine inhibitory activity, a compound with concentrations ranging from 100 nM to 10 µM was incubated with p300-HAT (10 nM) in 20 µL of 50 mM phosphate buffer (pH = 7.0) containing 0.01% Brij-35 for 10 min at 25° C. […] Radioactivity on the filter paper was measured with a Beckman LS-6500 scintillation counter. […]

MCF-7 (Tam-R) = assay: Cell growth inhibition, tamoxifen-resistant MCF-7; assay type: cell-based; conditions: read-out: EC50, antiproliferative activity
Procedure: The anti-proliferation assays for non-breast cancer cells were done using a previously developed assay. In brief, for Kasumi-1 cells, […] were added into 96-well plates and cultured with increasing concentrations of a compound in RPMI-1640 medium supplemented with 20% fetal bovine serum and penicillin (100 U/mL) and streptomycin (100 µg/mL) at 37° C. in a 5% CO2 atmosphere with 100% humidity. For solid tumor cells, 10^5 cells per well were added into 96-well plates and cultured in Dulbecco’s Modified Eagle’s Medium (DMEM) supplemented with 10% fetal bovine serum and penicillin (100 U/mL) and streptomycin (100 µg/mL) overnight. Upon addition of increasing concentrations of a compound, cells were incubated for 5 days. Cell viability was assessed by using an XTT assay kit (Roche) for leukemia cells or an MTT assay (Sigma) for attachment cells. For the breast cancer MCF-7 cells, culture and inhibition assays were performed according to our previous methods in Ref. 25 and 26. Compound EC50 values were calculated from dose response curves using Prism 5.0.

[1] = system: ER+ breast cancer MCF-7 cells; assay: RNA sequencing / gene set enrichment analysis (GSEA); assay type: cell-based, human; conditions: MCF-7, 6 µM, 48 h, with estradiol 10 nM
Procedure: RNA sequencing was used to investigate how treatment with p300 HAT inhibitor 12 affects gene expression in ER^+ breast cancer MCF-7 cells. […] RNA sequencing data were mapped onto the human genome and gene expression profiles were determined and normalized. […] Gene set enrichment analysis (GSEA)(31) was used to analyze significant gene expression changes between these three groups of MCF-7 cells.
Upon starvation (culturing in phenol red-free DMEM medium with 10% charcoal treated FBS to remove hydrophobic hormones such as estrogens) for 7 days, MCF-7 cells were treated with the p300 inhibitor (6 µM) or DMSO control, in the presence or absence of (10 nM) estradiol (E2) for 48 hours. Total RNA was extracted using RNeasy Plus Mini Kit (Qiagen), according to the manufacturer’s instruction.
The RNA integrity for each sample was assessed with a RNA 6000 Nano chip on a 2100 Bioanalyzer (Agilent; Santa Clara, CA). The average RNA integrity score for the sample set was 6.48. Sequencing libraries were prepared using the TruSeq Stranded Total RNA Library Prep Kit (Illumina, Inc; San Diego, CA). Concisely, ribosomal RNA (rRNA) was depleted from total RNA where the remaining (ribo-depleted RNA) was purified, fragmented for 7.5 minutes, and primed for cDNA synthesis. […] The concentration of each library was determined by quantitative PCR (qPCR) by the KAPA Library Quantification Kit for Next Generation Sequencing (KAPA Biosystems; Woburn, MA).
Libraries were normalized to 50 nmol/L in 10 mM Tris-Cl, pH8.5 with 0.1% Tween 20 then pooled evenly. […] Sequencing-by-synthesis (SBS) was performed on a HiSeq 2500 utilizing v2 chemistry with paired-end 101 bp reads and a 6 bp index read culminating in an average output of 20 million paired-end reads (or 40 million total reads) per sample. Sequence read data were processed and converted to FASTQ format by Illumina BaseSpace analysis software (v2.0.13).
RNAseq data files were trimmed using Trim Galore!. […] Gene expression was assessed and fragments per kilobase of transcript per million (FPKM) values were determined using Stringtie. […]

T1 sequence (Q92793 1323-1700 limits assumed): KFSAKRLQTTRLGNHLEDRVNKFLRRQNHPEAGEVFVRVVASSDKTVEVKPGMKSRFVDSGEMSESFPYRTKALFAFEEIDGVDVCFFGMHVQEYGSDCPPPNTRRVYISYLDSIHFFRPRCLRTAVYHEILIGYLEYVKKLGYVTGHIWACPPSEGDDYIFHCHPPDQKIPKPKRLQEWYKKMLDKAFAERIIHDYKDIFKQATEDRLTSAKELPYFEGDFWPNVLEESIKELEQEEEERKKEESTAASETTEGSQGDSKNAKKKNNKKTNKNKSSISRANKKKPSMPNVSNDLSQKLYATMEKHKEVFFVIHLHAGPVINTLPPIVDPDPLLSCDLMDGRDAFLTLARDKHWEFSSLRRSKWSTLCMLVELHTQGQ

For `CC(C)(C)c1ccc(-c2cc(CNCC3CCNCC3)sc2-c2ccc(C(C)(C)C)cc2)cc1` [Compound 12], the IC50 (human CBP HAT) was 1200 nM, the EC50 (MCF-7 (Tam-R)) was 3400 nM and the “normalized enrichment score (NES), genes suppressed by p300 knockdown (GSE31873)” value ([1]; FIG. 7A) was -3.32. The “NES, gene set upregulated by estradiol” value ([1]; FIG. 7B) was -9.19 and the “NES, genes suppressed by estradiol” value ([1]; FIG. 7C) was 7.41.

— patent publication US20230167101A1, “NOVEL INHIBITORS OF HISTONE […] P300/CBP FOR CANCER THERAPY” (BAYLOR COLLEGE OF MEDICINE, priority 2020, published 2023)
